Molecules are shown by their SMILES.

For one assay, the target named is T1, FAAH (Mus musculus, UniProt O08914).
T1 construct: mouse brain membrane fraction or cell lysates for mouse assays; from tissue
T1 sequence (O08914 1-579): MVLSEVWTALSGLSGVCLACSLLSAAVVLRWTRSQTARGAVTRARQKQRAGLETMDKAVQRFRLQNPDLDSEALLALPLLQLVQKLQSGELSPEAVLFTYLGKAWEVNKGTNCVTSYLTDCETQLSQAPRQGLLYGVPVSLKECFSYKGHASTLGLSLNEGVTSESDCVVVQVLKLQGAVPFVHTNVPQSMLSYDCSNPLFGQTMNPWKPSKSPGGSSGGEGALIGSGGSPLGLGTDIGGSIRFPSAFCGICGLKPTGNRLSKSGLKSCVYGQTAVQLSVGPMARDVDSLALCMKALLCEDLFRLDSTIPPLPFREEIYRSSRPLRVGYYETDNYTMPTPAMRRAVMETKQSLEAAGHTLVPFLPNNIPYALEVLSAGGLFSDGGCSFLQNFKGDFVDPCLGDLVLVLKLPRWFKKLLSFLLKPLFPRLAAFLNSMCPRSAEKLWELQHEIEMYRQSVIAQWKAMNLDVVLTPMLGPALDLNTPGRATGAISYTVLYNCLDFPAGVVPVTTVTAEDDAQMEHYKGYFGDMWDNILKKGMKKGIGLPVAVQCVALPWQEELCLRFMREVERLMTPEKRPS
The assay can be described thus: In vitro competitive activity-based protein profiling, mouse FAAH. It counts as biochemical. The following applies: for inhibition at 1 µM: read-out: FAAH % inh. 1 μM (mouse). An outline of the steps: (§1)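 Activity measured as fluorescent gel-band intensity of MAGL and FAAH after SDS-PAGE. Before labelling with FP-Rh or HT-01 (30 min, 37 °C), proteomes at 1.0 mg/mL (mouse brain membrane or lysates; human prefrontal cortex or cell membranes) were exposed to varying inhibitor concentrations for 30 min at 37 °C.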

The target in the next assay is T2, MAGL (Mus musculus, UniProt O35678).
T2 construct: mouse brain membrane fraction or cell lysates for mouse assays; from tissue
T2 sequence (O35678 1-303): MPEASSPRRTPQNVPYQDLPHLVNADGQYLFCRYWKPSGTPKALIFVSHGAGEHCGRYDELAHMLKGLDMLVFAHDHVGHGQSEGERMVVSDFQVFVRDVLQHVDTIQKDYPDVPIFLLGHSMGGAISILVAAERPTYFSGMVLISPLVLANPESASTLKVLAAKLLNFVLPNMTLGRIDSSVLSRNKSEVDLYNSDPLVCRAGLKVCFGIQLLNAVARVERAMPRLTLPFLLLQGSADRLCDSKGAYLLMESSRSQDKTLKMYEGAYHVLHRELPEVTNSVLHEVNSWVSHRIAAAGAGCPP
As to the kind of experiment: In vitro competitive activity-based protein profiling, mouse MAGL. Format: biochemical. The conditions noted are these: for inhibition at 1 µM: read-out: MAGL % inh. 1 μM (mouse). Put shortly:
as §1

As a reminder, the IC50 is the concentration at which inhibition is half-maximal. Lower therefore signals greater potency. As to `O=C(N1CCC2(CCN(Cc3ccccc3Cl)C2)C1)n1cc(C(F)(F)F)cn1` (stereo not shown) [Example 176, (7-(2-chlorobenzyl)-2,7-diazaspiro[4.4]nonan-2-yl)(4-(trifluoromethyl)-1H-pyrazol-1-yl)methanone], on FAAH, the IC50 was no more than 0.1 µM and the inhibition at 1 µM was no less than 75%. On MAGL, the half-inhibitory concentration (IC50) was no more than 0.1 µM and the inhibition at 1 µM is no less than 75%.

In the case of `O=C(N1CC2CN(Cc3ccccc3C(F)(F)F)CC2C1)n1cc(C(F)(F)F)cn1` (stereo not shown) [Example 155, (4-(trifluoromethyl)-1H-pyrazol-1-yl)(5-(2-(trifluoromethyl)benzyl)hexahydropyrrolo[3,4-c]pyrrol-2(1H)-yl)methanone], at FAAH, the IC50 is no more than 0.1 µM and the inhibition at 1 µM was no less than 75%. Besides, at MAGL, the IC50 was no more than 0.1 µM and the inhibition at 1 µM is no less than 75%.

On to `CC1COCCN1c1cc(F)ccc1CN1CC2CN(C(=O)n3cc(Cl)cn3)CC2C1` (stereo not shown) [Example 104, (4-chloro-1H-pyrazol-1-yl)(5-(4-fluoro-2-(3-methylmorpholino)benzyl)hexahydropyrrolo[3,4-c]pyrrol-2(1H)-yl)methanone], for which the inhibition at 1 µM on FAAH and on MAGL was no less than 75% in each case.

On to `CN(Cc1ccc(-c2cccnn2)cc1C(F)(F)F)[C@@H]1C[C@@H]2CN(C(=O)n3cc(C(N)=O)cn3)C[C@@H]2C1` [Example 191, 1-(cis-5-(methyl(4-(pyridazin-3-yl)-2-(trifluoromethyl)benzyl)amino)octahydrocyclopenta[c]pyrrole-2-carbonyl)-1H-pyrazole-4-carboxamide], for which the inhibition at 1 µM on FAAH and at MAGL was no less than 75% each time.

On to `CN(Cc1ccc(Oc2ccccc2)cc1)[C@@H]1C[C@@H]2CN(C(=O)n3cc(Cl)cn3)C[C@@H]2C1` [Example 158, (4-chloro-1H-pyrazol-1-yl)(cis-5-(methyl(4-phenoxybenzyl)amino)hexahydrocyclopenta[c]pyrrol-2(1H)-yl)methanone], for which the inhibition at 1 µM on FAAH and on MAGL was no less than 75% throughout.

For `CN(Cc1ccc(C(F)(F)F)cc1)[C@@H]1C[C@@H]2CN(C(=O)n3cc(Cl)cn3)C[C@@H]2C1` [Example 76, (4-chloro-1H-pyrazol-1-yl)(cis-5-(methyl(4-(trifluoromethyl)benzyl)amino)hexahydrocyclopenta[c]pyrrol-2(1H)-yl)methanone], the IC50 at FAAH and at MAGL was no more than 0.1 µM throughout. Also, the inhibition at 1 µM at FAAH and on MAGL was no less than 75% each time.

`O=C(N1CCC2(CCN(Cc3ccccc3N3CCOCC3)C2)C1)n1cc(C(F)(F)F)cn1` (stereo not shown) [Example 182, 2-{[2-(morpholin-4-yl)phenyl]methyl}-7-{[4-(trifluoromethyl)-1H-pyrazol-1-yl]carbonyl}-2,7-diazaspiro[4.4]nonane]: the results for the inhibition at 1 µM on FAAH and on MAGL were 25 to 50% and no less than 75%, respectively.

Regarding `NC(=O)c1cnn(C(=O)N2CCC3(CCN(Cc4cc(N5CCCC5)cc(C(F)(F)F)c4)C3)C2)c1` (stereo not shown) [Example 211, 1-(7-(3-(pyrrolidin-1-yl)-5-(trifluoromethyl)benzyl)-2,7-diazaspiro[4.4]nonane-2-carbonyl)-1H-pyrazole-4-carboxamide], the inhibition at 1 µM at FAAH and at MAGL was no less than 75% each time.

As for `Cc1cccc(CN2CCC3(CCN(C(=O)n4cc(C(F)(F)F)cn4)C3)C2)c1` (stereo not shown) [Example 170, (7-(3-methylbenzyl)-2,7-diazaspiro[4.4]nonan-2-yl)(4-(trifluoromethyl)-1H-pyrazol-1-yl)methanone], the IC50 was no more than 0.1 µM at FAAH and 0.1 to 1 µM on MAGL. Further, the inhibition at 1 µM on FAAH and on MAGL was no less than 75% each time.

On to `O=C(N1CCC2(CCN(Cc3ccc(N4CCOCC4)cc3)C2)C1)n1cc(Cl)cn1` (stereo not shown) [Example 136, (4-chloro-1H-pyrazol-1-yl)(7-(4-morpholinobenzyl)-2,7-diazaspiro[4.4]nonan-2-yl)methanone], for which, on FAAH, the IC50 was in the range of 0.1 to 1 µM and the inhibition at 1 µM is no less than 75%. Moreover, on MAGL, the IC50 was 0.1 to 1 µM and the inhibition at 1 µM is no less than 75%.

Consider `O=C(c1cnn(C(=O)N2CCC3(CCN(Cc4ccc(N5CCOCC5)cc4C(F)(F)F)C3)C2)c1)N1CCOCC1` (stereo not shown) [Example 51, (4-(morpholine-4-carbonyl)-1H-pyrazol-1-yl)(7-(4-morpholino-2-(trifluoromethyl)benzyl)-2,7-diazaspiro[4.4]nonan-2-yl)methanone], for which the inhibition at 1 µM at FAAH is no less than 75%; at MAGL, 25 to 50%.

Consider `O=C(N1CCC2(CCN(Cc3ccc(Cl)c(Cl)c3)C2)C1)n1cc(Cl)cn1` (single isomer, unassigned) [Example 140, (4-chloro-1H-pyrazol-1-yl)(7-(3,4-dichlorobenzyl)-2,7-diazaspiro[4.4]nonan-2-yl)methanone], for which the IC50 on FAAH and at MAGL was no more than 0.1 µM each time.

Turning to `O=C(N1CCC2(CCN(Cc3ccccc3)C2)C1)n1cc(Cl)cn1` (stereo not shown) [Example 114, (7-benzyl-2,7-diazaspiro[4.4]nonan-2-yl)(4-chloro-1H-pyrazol-1-yl)methanone], the inhibition at 1 µM on FAAH was no less than 75%; at MAGL it was 50 to 75%.

On to `CN(Cc1ccc(Oc2ccccc2)cc1)[C@H]1C[C@@H]2CN(C(=O)n3cc(Cl)cn3)C[C@@H]2C1` [Example 159, (4-chloro-1H-pyrazol-1-yl)(trans-5-(methyl(4-phenoxybenzyl)amino)hexahydrocyclopenta[c]pyrrol-2(1H)-yl)methanone], for which the inhibition at 1 µM at FAAH and on MAGL was no less than 75% in each case.

With `O=C(c1cnn(C(=O)N2CC3CN(Cc4cc(Cl)ccc4Cl)CC3C2)c1)N1CCN(C2CC2)CC1` (stereo not shown) [Example 6, (4-cyclopropylpiperazin-1-yl)(1-(5-(2,5-dichlorobenzyl)octahydropyrrolo[3,4-c]pyrrole-2-carbonyl)-1H-pyrazol-4-yl)methanone], the inhibition at 1 µM is 0 to 25% at FAAH and no less than 75% at MAGL.

With `NC(=O)c1cnn(C(=O)N2CCC3(CCN(Cc4ccc(Cl)cc4)C3)C2)c1` (stereo not shown) [Example 37, 1-(7-(4-chlorobenzyl)-2,7-diazaspiro[4.4]nonane-2-carbonyl)-1H-pyrazole-4-carboxamide], the IC50 at FAAH is no more than 0.1 µM; on MAGL it was 1 to 10 µM. The inhibition at 1 µM was no less than 75% at FAAH and 50 to 75% on MAGL.

As to `CN(Cc1ccc(-c2cnccn2)cc1C(F)(F)F)[C@@H]1C[C@@H]2CN(C(=O)n3cc(C(N)=O)cn3)C[C@@H]2C1` [Example 226, 1-(cis-5-(methyl(4-(pyrazin-2-yl)-2-(trifluoromethyl)benzyl)amino)octahydrocyclopenta[c]pyrrole-2-carbonyl)-1H-pyrazole-4-carboxamide], the inhibition at 1 µM at FAAH and at MAGL was no less than 75% in each case.

`CNC(=O)c1cnn(C(=O)N2CCC3(CCN(Cc4ccc(N5CCOCC5)cc4C(F)(F)F)C3)C2)c1` (stereo not shown) [Example 49, N-methyl-1-(7-(4-morpholino-2-(trifluoromethyl)benzyl)-2,7-diazaspiro[4.4]nonane-2-carbonyl)-1H-pyrazole-4-carboxamide]: the inhibition at 1 µM at FAAH and on MAGL was no less than 75% each time.

For `O=C(c1cnn(C(=O)N2CC3CN(Cc4cccc(C(F)(F)F)c4)CC3C2)c1)N1CCN(C2CC2)CC1` (stereo not shown) [Example 8, (4-cyclopropylpiperazin-1-yl)(1-(5-(3-(trifluoromethyl)benzyl)octahydropyrrolo[3,4-c]pyrrole-2-carbonyl)-1H-pyrazol-4-yl)methanone], the inhibition at 1 µM at FAAH and on MAGL was no less than 75% each time.

As to `O=C(N1CCC2(CCN(Cc3cccc(Cl)c3)C2)C1)n1cc(Cl)cn1` (stereo not shown) [Example 113, (4-chloro-1H-pyrazol-1-yl)(7-(3-chlorobenzyl)-2,7-diazaspiro[4.4]nonan-2-yl)methanone], at FAAH, the concentration for half-maximal inhibition (IC50) is no more than 0.1 µM and the inhibition at 1 µM is no less than 75%. Moreover, on MAGL, the IC50 is 0.1 to 1 µM and the inhibition at 1 µM is no less than 75%.

For `CC(=O)N1CCN(c2cc(F)ccc2CN2CC3CN(C(=O)n4cc(Cl)cn4)CC3C2)CC1` (stereo not shown) [Example 107, 1-(4-(2-((5-(4-chloro-1H-pyrazole-1-carbonyl)hexahydropyrrolo[3,4-c]pyrrol-2(1H)-yl)methyl)-5-fluorophenyl)piperazin-1-yl)ethan-1-one], on FAAH, the IC50 is 0.1 to 1 µM and the inhibition at 1 µM is no less than 75%. For the same compound, at MAGL, the IC50 is no more than 0.1 µM and the inhibition at 1 µM was no less than 75%.

Values taken from patent publication US10385057B2, “Pyrazole compounds and methods of making and using same” (Lundbeck La Jolla Research Center, Inc., priority 2015, dated 2019).
